Entries after “also recorded” stand apart in the source; their conditions may differ. Values belong to the molecule of their own block, whether it stands above or below them. Peptide text beside a SMILES is read from it.
What was measured:
[1] = Metabolism of Ang-(1-12) in 1:10 diluted human plasma with and without enzyme inhibitors; settings: 37 °C; for Angiotensin metabolite generated from Ang-(1-12), aliskiren + lisinopril / Angiotensin metabolite generated from Ang-(1-12), aliskiren: 60 min after adding 1000 ng/mL Ang-(1-12), t=0 level subtracted; for Angiotensin metabolite generated from Ang-(1-12), aliskiren + lisinopril: aliskiren 10 µmol/L + lisinopril 10 µmol/L; for Angiotensin metabolite generated from Ang-(1-12), aliskiren: aliskiren 10 µmol/L
Experimental: Heparin plasma was obtained from 3 healthy volunteers (1 woman, 2 men; age range 30–40 years). The plasma was incubated for 1 hour at 37 °C, in the absence or presence of the renin inhibitor aliskiren (10 µmol/L), the ACE inhibitor lisinopril (10 µmol/L), the chymase inhibitor chymostatin (10 µmol/L), the aminopeptidase A inhibitor amastatin (10 µmol/L), the neprilysin inhibitor sacubitrilat (LBQ-657, 10 µmol/L), or the prolyl oligopeptidase inhibitor ZPP (20 µmol/L). All inhibitors were from Sigma Aldrich, St. Louis, MO. Next, the plasma was diluted 1:10 in PBS (t=0) and incubated again for 1 hour at 37 °C (t=60) with 1000 ng/mL Ang-(1-12; Sigma Aldrich). Samples at 0 and 60 minutes were collected in 6 mol/L guanidine hydrochloride, and angiotensins were quantified by LC-MS/MS.
Human ([sequence], molecular weight: 1508.8 Da) and murine ([sequence], molecular weight: 1572.8 Da) Ang-(1-12) were quantified by LC-MS/MS. […] The powder was dissolved by cooled sonication using a 2-mm microtip (Sonics and Materials, Newton, NJ). Stable isotope-labeled IS for human and murine Ang-(1-12)–containing isoleucine C^13/N^15 (mass +7) at [Ile5] were spiked to tissue homogenates and stabilized blood samples at 1000 pg/mL for internal standardization. The samples then underwent C18-based solid-phase extraction for purification before being subjected to liquid chromatography using a reversed-phase analytical column operating in line with a Xevo TQ-S triple quadruple mass spectrometer (Waters). Two independent MS/MS transitions based on the mass-to-charge ratio of the parent (+3) and fragment ions (+2) were recorded for each analyte and IS simultaneously. Signals from IS were used to correct for peptide recovery in the sample preparation procedure and matrix signal suppression for each analyte in each individual sample.
Data are provided as individual values and means. Statistical analysis was done by the Student’s t test or by ANOVA, followed by post hoc correction according to Dunnett.

[2] = Disappearance of Ang-(1-12) added to nonstabilized human plasma incubated at 37 °C; format: in vitro ADME; settings: LC-MS/MS
Experimental: MS/MS transitions were as follows:
Signals for all 4 analytes were recorded simultaneously in all samples to show the specificity of the gained signals. […] The lower limit of quantification was 2 fmol/mL in blood and 10 fmol/g in tissue (ie, 3 pg/mL and 15 pg/g, respectively). Ang I, Ang II, Ang III, Ang IV, Ang-(1-7), and Ang-(1-5) were determined by LC-MS/MS as described before.[27],[28]
A rapid collection of blood in 6 mol/L guanidine hydrochloride was chosen for blood collection since this allowed a full recovery of spiked Ang-(1-12; Figure 1A). Importantly, Ang-(1-12) remained undetectable when incubating nonstabilized plasma at 37 °C (Figure 1B), while Ang-(1-12) added to nonstabilized human plasma disappeared almost completely (>80%) within 10 minutes during incubation at 37 °C (Figure 1B). Stabilized human blood samples contained Ang I and Ang II, but Ang-(1-12) was not detectable (Figure 2C). Plasma obtained from the same patients contained normal renin and angiotensinogen levels (Figure 2A and 2B).[29],[30]

[3] = Recovery of spiked Ang-(1-12) from blood collected in 6 mol/L guanidine hydrochloride; format: in vitro ADME; settings: human blood collected in 6 mol/L guanidine hydrochloride; LC-MS/MS with stable isotope-labeled IS
[4] = tested on: angiotensin-converting enzyme (ACE); experiment: extracellular, eg, in blood; settings: cited from earlier work
[5] = Heparin plasma from 3 healthy volunteers, diluted 1:10 in PBS; settings: human, 37 °C, up to 60 minutes
[6] = tested on: neprilysin; experiment: renal cortical membranes; settings: cited from earlier work
[7] = tested on: chymase; experiment: intracellular, eg, at tissue sites; settings: cited from earlier work
[8] = 1:10 diluted human plasma, LC-MS/MS

Molecule: angiotensin II (DRVYIHPF; Angiotensin-2; UniProt P01019 25-32, looked up) [Ang II]
Angiotensin metabolite generated from Ang-(1-12), aliskiren + lisinopril [1, 8]: 417 pg/mL
Angiotensin metabolite generated from Ang-(1-12), aliskiren [1, 8]: 7239 pg/mL

Reduction in metabolite formation from Ang-(1-12) by ACE inhibition ([1]; 1:10 diluted human plasma, 60 min, aliskiren + lisinopril vs aliskiren): 50%
Angiotensin metabolite generated from Ang-(1-12), aliskiren + lisinopril [1, 8]: 946 pg/mL
Angiotensin metabolite generated from Ang-(1-12), aliskiren [1, 8]: 2238 pg/mL
Molecule: CC[C@H](C)[C@H](NC(=O)[C@H](Cc1ccc(O)cc1)NC(=O)[C@@H](NC(=O)[C@H](CCCNC(=N)N)NC(=O)[C@@H](N)CC(=O)O)C(C)C)C(=O)N[C@@H](Cc1c[nH]cn1)C(=O)N1CCC[C@H]1C(=O)O [Ang-(1-7)]

Angiotensin metabolite generated from Ang-(1-12), aliskiren + lisinopril [1, 8]: < 2 pg/mL
Angiotensin metabolite generated from Ang-(1-12), aliskiren [1, 8]: 983 pg/mL
Molecule: CC[C@H](C)[C@H](NC(=O)[C@H](Cc1ccc(O)cc1)NC(=O)[C@@H](NC(=O)[C@H](CCCNC(=N)N)NC(=O)[C@@H](N)CC(=O)O)C(C)C)C(=O)O [Ang-(1-5)] (H-DRVYI-OH)

Molecule: CC[C@H](C)[C@H](NC(=O)[C@@H](NC(=O)[C@H](CC(C)C)NC(=O)[C@H](Cc1c[nH]cn1)NC(=O)[C@H](Cc1ccccc1)NC(=O)[C@@H]1CCCN1C(=O)[C@H](Cc1c[nH]cn1)NC(=O)[C@@H](NC(=O)[C@H](Cc1ccc(O)cc1)NC(=O)[C@@H](NC(=O)[C@H](CCCNC(=N)N)NC(=O)[C@@H](N)CC(=O)O)C(C)C)[C@@H](C)CC)C(C)C)C(=O)O [Ang-(1-12), Angiotensin-(1-12)] (H-DRVYIHPFHLVI-OH)
Contribution of chymase to Ang-(1-12) metabolism ([1]; 1:10 diluted human plasma, 60 min, 1000 ng/mL, chymase inhibitor chymostatin 10 µmol/L, LC-MS/MS, n = 3): did not contribute to its metabolism
Contribution of prolyl oligopeptidase to Ang-(1-12) metabolism ([1]; 1:10 diluted human plasma, 60 min, 1000 ng/mL, prolyl oligopeptidase inhibitor ZPP 20 µmol/L, LC-MS/MS, n = 3): did not contribute to its metabolism
Disappearance of Ang-(1-12) in the presence of aliskiren ([1]; 1:10 diluted human plasma, 60 min, 1000 ng/mL, renin inhibitor aliskiren 10 µmol/L, LC-MS/MS, n = 3): unaltered
Change in Ang-(1-12) recovery after inhibiting neprilysin ([1]; 1:10 diluted human plasma, 60 min, 1000 ng/mL, sacubitrilat (LBQ-657) 10 µmol/L, LC-MS/MS, n = 3): did not observe a change
Change of Ang-(1-12) half-life on addition of lisinopril ([1]; 1:10 diluted human plasma, 60 min, 1000 ng/mL, subsequent addition of ACE inhibitor lisinopril 10 µmol/L, LC-MS/MS, n = 3): doubling the half-life
Change of Ang-(1-12) half-life on addition of amastatin ([1]; 1:10 diluted human plasma, 60 min, 1000 ng/mL, subsequent addition of aminopeptidase A inhibitor amastatin 10 µmol/L, LC-MS/MS, n = 3): tripling the half-life
Half-life of Ang-(1-12) corresponding to undiluted plasma ([1]; extrapolated from 1:10 diluted human plasma): < 3 min
Fraction of added Ang-(1-12) that disappeared within 10 minutes ([2]; 10 minutes): > 80%
metabolised at 10 min ([2]; 10 minutes, read-out: Fraction of added Ang-(1-12) that disappeared within 10 minutes): ~80%
Time within which added angiotensin-(1-12) disappeared [2]: ≤ 10 min
Recovery of spiked Ang-(1-12) [3]: full recovery

Molecule: DRVYIHPFHLVI
fragment found [4]: Ang I; also recorded: Ang II
fragment found [5]: Ang I; also recorded: Ang II; also recorded: Ang-(1-5)
fragment found [6]: Ang-(1-7)
fragment found [7]: Ang II
